Assay results published in paper PMC8861095, “Neurotoxicological profile of the hallucinogenic compound 25I-NBOMe” (Scientific Reports, 2022).

Experiments:
[1] = test system: BrdU+ cells and BrdU/NeuN+ neurons in the hippocampus; settings: doses 0.1, 0.3, and 1 mg/kg; vs control rats; cited from earlier work
[2] = test system: p21 (CDC42/RAC)-activated kinase 1 (PAK1); design: method as in PMID 32597268; settings: cited from earlier work
[3] = 25I-NBOMe distribution in rat blood plasma and brain regions (LC–MS/MS, ESI ion trap); type: in vivo
Procedure: Animals received single or multiple (once per day for seven days) subcutaneous injections of 25I-NBOMe dissolved in 0.9% NaCl at a dose of 0.3 mg/kg/2 ml. The control group was treated with 0.9% NaCl solution in the same way. All procedures were performed 72 h after the last injection. The time point of 72 h was chosen due to the possible generation of neurotoxicity via oxidative stress caused by reactive oxygen species (ROS). Exceptionally, for initial 25I-NBOMe brain distribution studies, rats received the drug in the dose of 1 and 10 mg/kg and were sacrificed 15 min after the drug administration. The rat blood plasma and brain tissues were collected immediately after rats’ decapitation. LSD (0.05 mg/kg, ip) was given daily for 7 days in a volume of 1 ml/kg, while MDMA 5 mg/kg, ip was injected in a volume of 2 ml/kg every second day (overall 4 injections).
The presence of 25I-NBOMe in the rat brain regions and blood serum was analyzed with electrospray ion trap mass spectrometry (Amazon SL from Bruker Daltonics, Bremen, Germany). At 72 h after the last injection with 25I-NBOMe or 15 min after injection of single low and high (1 and 10 mg/kg) dose, animals were sacrificed by decapitation. Brains were removed and the frontal cortex, striatum, nucleus accumbens, and hippocampus were dissected. The blood samples were also collected after 25I-NBOMe injections. Tissue samples were homogenized in an ice-cold 0.1 M HClO4, and were centrifuged at 10,000×g for 10 min at 4 °C. Blood was incubated for 30 min and then centrifuged for 15 min, 3000 rpm at 4 °C. The collected blood serum and tissue supernatants were frozen at − 80 °C until the time of mass spectrometry analysis. The value pH of samples was about 2. To purify the samples, solid phase extraction (SPE) columns MacroSpin Columns Silica C18 (The Nest Group, Inc., Southborough, USA) were used. Initially, columns were activated with 100% methanol (MeOH) solution by double centrifugation at 110×g for 1 min. Next, to remove MeOH, 2% acetonitrile (ACN) with 0.1% HCOOH was used. Subsequently, the columns were washed twice with the blood and tissue samples. To remove adenosine-5'-diphosphate (ADP) that has the same precursor ion as 25I-NBOMe the columns were washed twice with 2% ACN. Finally, to wash out 25I-NBOMe, the column was washed twice with 80% ACN with 0.1% HCOOH. Samples were left to dry in SpeedVac Vacuum Concentrator (Labconco, Kansas City, USA) overnight. The following day, samples were dissolved in 10% ACN with 0.1% HCOOH and injected to the LC–MS/MS system. The nanoLC-MS/MS analysis used to separate compounds was performed using the Ultimate 3000 nanocapillary chromatography system (Polygen, Gliwice, Poland). The separations were performed using a PepMap column (15 cm long, 75 μm ID, C18, 3 μm particle size, 100 Å pore size, Thermo-Scientific). The gradient was formed using 0.1% HCOOH in H2O (solvent A) and 0.1% HCOOH in ACN (solvent B), at a flow rate of 300 nl/min. The system was controlled by the Hystar software (Bruker Daltonics). A gradient was produced from 5 to 80% B in 100 min, then kept at 90% of phase B for 10 min. The mass spectrometry detection was performed in positive ion mode by electrospray ion trap mass spectrometry (Amazon SL from Bruker Daltonics, Bremen, Germany). The retention time of 25I-NBOMe was about 30.3 min. The acquired mass spectra were analyzed using the Bruker Data Analysis v. 4.0 software (Bruker Daltonics). The data presented in tables are calculated as intensity per 1 mg of wet tissue or 1 ml of blood serum, while mass spectra represent the real intensity of 25I-NBOMe-precursor ion from tissue samples with different mass.

COc1cc(CCNCc2ccccc2OC)c(OC)cc1I [25I-NBOMe, 4-Iodo-2,5-dimethoxy-N-(2-methoxybenzyl)phenethylamine]
Number of surviving BrdU+ cells and BrdU/NeuN+ neurons in the hippocampus [1]: significantly decreased
In vitro activity of PAK1 [2]: reduced
Accumulation in brain tissue after repeated administration ([3]; 0.3 mg/kg × 7 vs single dose, 72 h): caused drug accumulation in the brain tissue
Intensity of the 25I-NBOMe precursor ion (~ 428 m/z) ([3]; blood plasma, single 1 mg/kg, 15 min after injection, per 1 ml of blood serum, one sample preparation): 9.24 × 10^4 a.u.
Intensity of the 25I-NBOMe precursor ion (~ 428 m/z) ([3]; blood plasma, single 10 mg/kg, 15 min after injection, per 1 ml of blood serum, one sample preparation): 5.44 × 10^5 a.u.
Crossing of the blood–brain barrier (BBB) ([3]; detected in blood serum and several brain regions 15 min after injection): easily crosses the blood–brain barrier (BBB)
Intensity of the 25I-NBOMe precursor ion (~ 428 m/z) ([3]; frontal cortex, chronic 0.3 mg/kg × 7 sc, 72 h after last injection, per 1 mg of wet tissue): 2.93 × 10^4 a.u.
Intensity of the 25I-NBOMe precursor ion (~ 428 m/z) ([3]; frontal cortex, single 0.3 mg/kg sc, 72 h after injection, per 1 mg of wet tissue): 2.25 × 10^3 a.u.
Intensity of the 25I-NBOMe precursor ion (~ 428 m/z) ([3]; frontal cortex, single 1 mg/kg, 15 min after injection, per 1 mg of wet tissue): 2.94 × 10^4 a.u.
Intensity of the 25I-NBOMe precursor ion (~ 428 m/z) ([3]; frontal cortex, single 10 mg/kg, 15 min after injection, per 1 mg of wet tissue): 4.36 × 10^5 a.u.
Intensity of the 25I-NBOMe precursor ion (~ 428 m/z) ([3]; hippocampus, chronic 0.3 mg/kg × 7 sc, 72 h after last injection, per 1 mg of wet tissue): 1.72 × 10^4 a.u.
Intensity of the 25I-NBOMe precursor ion (~ 428 m/z) ([3]; hippocampus, single 0.3 mg/kg sc, 72 h after injection, per 1 mg of wet tissue): 6.89 × 10^3 a.u.
Intensity of the 25I-NBOMe precursor ion (~ 428 m/z) ([3]; hippocampus, single 1 mg/kg, 15 min after injection, per 1 mg of wet tissue): 1.60 × 10^4 a.u.
Intensity of the 25I-NBOMe precursor ion (~ 428 m/z) ([3]; hippocampus, single 10 mg/kg, 15 min after injection, per 1 mg of wet tissue): 2.71 × 10^5 a.u.
Intensity of the 25I-NBOMe precursor ion (~ 428 m/z) ([3]; nucleus accumbens, chronic 0.3 mg/kg × 7 sc, 72 h after last injection, per 1 mg of wet tissue): 9.00 × 10^3 a.u.
Intensity of the 25I-NBOMe precursor ion (~ 428 m/z) ([3]; nucleus accumbens, single 0.3 mg/kg sc, 72 h after injection, per 1 mg of wet tissue): 3.85 × 10^3 a.u.
Intensity of the 25I-NBOMe precursor ion (~ 428 m/z) ([3]; nucleus accumbens, single 1 mg/kg, 15 min after injection, per 1 mg of wet tissue): 2.32 × 10^7 a.u.
Intensity of the 25I-NBOMe precursor ion (~ 428 m/z) ([3]; nucleus accumbens, single 10 mg/kg, 15 min after injection, per 1 mg of wet tissue): 7.15 × 10^7 a.u.
Intensity of the 25I-NBOMe precursor ion (~ 428 m/z) ([3]; striatum, chronic 0.3 mg/kg × 7 sc, 72 h after last injection, per 1 mg of wet tissue): 2.12 × 10^3 a.u.
Intensity of the 25I-NBOMe precursor ion (~ 428 m/z) ([3]; striatum, single 0.3 mg/kg sc, 72 h after injection, per 1 mg of wet tissue): 1.61 × 10^3 a.u.
Intensity of the 25I-NBOMe precursor ion (~ 428 m/z) ([3]; striatum, single 1 mg/kg, 15 min after injection, per 1 mg of wet tissue): 5.97 × 10^4 a.u.
Intensity of the 25I-NBOMe precursor ion (~ 428 m/z) ([3]; striatum, single 10 mg/kg, 15 min after injection, per 1 mg of wet tissue): 6.95 × 10^5 a.u.
